# Assay results as given in article PMC11971462, “Generation and validation of a novel multitarget small molecule in glioblastoma” (Cell Death & Disease, 2025).
# Tested on: GNS166 cells
# Assay: Label-free proteomics differential expression
# Type: cell-based, human
# Protocol: Proteomic studies were performed by the Proteomics Facility of the CIC bioGUNE by label-free relative quantification on nLC MS/MS. […] In both approaches, the top 20 enriched terms were plotted and the pathways were clustered using divisive hierarchical clustering based on pairwise Jaccard distances.
compound,measurement,setting,value
C#CCN(Cc1cc2cc(OCCCN3CCCCC3)ccc2n1S(=O)(=O)c1ccccc1)C(=O)CCCCCCC(=O)NO [DDI],LogFC STOM_HUMAN,protein P27105 GN=STOM,1.045
same,LogFC CD82_HUMAN,protein P27701 GN=CD82,-1.866
same,Direction PYR1_HUMAN,protein P27708,Down
same,LogFC PYR1_HUMAN,protein P27708,-0.3818
same,LogFC GSTM2_HUMAN,protein P28161 GN=GSTM2,1.203
same,Direction DPOD1_HUMAN,protein P28340,Down
same,LogFC DPOD1_HUMAN,protein P28340,-0.5649
same,LogFC GRAN_HUMAN,protein P28676 GN=GCA,2.772
same,Direction CD34_HUMAN,protein P28906,Down
same,LogFC CD34_HUMAN,protein P28906,-1.0921
same,LogFC TPP2_HUMAN,protein P29144 GN=TPP2,0.5124
same,LogFC CCN2_HUMAN,protein P29279 GN=CCN2,1.704
same,Direction EPHA2_HUMAN,protein P29317,Down
same,LogFC EPHA2_HUMAN,protein P29317,-1.4702
same,LogFC AL4A1_HUMAN,protein P30038 GN=ALDH4A1,0.9924
same,LogFC BLVRB_HUMAN,protein P30043 GN=BLVRB,1.9711
same,LogFC CDC27_HUMAN,protein P30260 GN=CDC27,-0.6942
same,LogFC CCND3_HUMAN,protein P30281 GN=CCND3,1.575
same,Direction NMT1_HUMAN,protein P30419,Down
same,LogFC NMT1_HUMAN,protein P30419,-0.6586
same,Direction UFO_HUMAN,protein P30530,Down
same,LogFC UFO_HUMAN,protein P30530,-2.709
same,Direction ILEU_HUMAN,protein P30740,Down
same,LogFC ILEU_HUMAN,protein P30740,-0.3615
same,Direction RIR2_HUMAN,protein P31350,Down
same,LogFC RIR2_HUMAN,protein P31350,-2.735
same,Direction DNJA1_HUMAN,protein P31689,Down
same,LogFC DNJA1_HUMAN,protein P31689,-0.6634
same,LogFC AKT1_HUMAN,protein P31749 GN=AKT1,-0.2725
same,Direction TF2H1_HUMAN,protein P32780,Down
same,LogFC TF2H1_HUMAN,protein P32780,-0.6552
same,LogFC TTK_HUMAN,protein P33981 GN=TTK,-1.092
same,LogFC VATE1_HUMAN,protein P36543 GN=ATP6V1E1,1.641
same,LogFC PP1G_HUMAN,protein P36873 GN=PPP1CC,0.989
same,LogFC GNL1_HUMAN,protein P36915 GN=GNL1,0.9003
same,Direction COIL_HUMAN,protein P38432,Down
same,LogFC COIL_HUMAN,protein P38432,-1.999
same,LogFC LICH_HUMAN,protein P38571 GN=LIPA,4.157
same,LogFC VATA_HUMAN,protein P38606 GN=ATP6V1A,1.1187
same,Direction COIA1_HUMAN,protein P39060,Down
same,LogFC COIA1_HUMAN,protein P39060,-1.248
same,LogFC MDHC_HUMAN,protein P40925 GN=MDH1,0.224
same,LogFC IF2G_HUMAN,protein P41091 GN=EIF2S3,0.129
same,LogFC EIF2D_HUMAN,protein P41214 GN=EIF2D,-1.485
same,Direction UBA7_HUMAN,protein P41226,Down
same,LogFC UBA7_HUMAN,protein P41226,-1.657
same,LogFC IPP2_HUMAN,protein P41236 GN=PPP1R2,1.34
same,LogFC CSK_HUMAN,protein P41240 GN=CSK,-0.3935
same,LogFC LAP2A_HUMAN,protein P42166 GN=TMPO,-1.129
same,LogFC LAP2B_HUMAN,protein P42167 GN=TMPO,-0.9256
same,LogFC STAT1_HUMAN,protein P42224 GN=STAT1,0.5798
same,LogFC PK3CA_HUMAN,protein P42336 GN=PIK3CA,-1.283
same,LogFC MTOR_HUMAN,protein P42345 GN=MTOR,-0.7122
same,LogFC CNDD3_HUMAN,protein P42695 GN=NCAPD3,-2.052
same,LogFC THIM_HUMAN,protein P42765 GN=ACAA2,1.09
same,Direction KI67_HUMAN,protein P46013,Down
same,LogFC KI67_HUMAN,protein P46013,-1.787
same,LogFC ATRX_HUMAN,protein P46100 GN=ATRX,-0.9089
same,Direction IF2M_HUMAN,protein P46199,Down
same,LogFC IF2M_HUMAN,protein P46199,-0.8269
same,LogFC MP2K3_HUMAN,protein P46734 GN=MAP2K3,1.1042
same,Direction STT3A_HUMAN,protein P46977,Down
same,LogFC STT3A_HUMAN,protein P46977,-0.5679
same,LogFC PA24A_HUMAN,protein P47712 GN=PLA2G4A,2.918
same,LogFC IF1AX_HUMAN,protein P47813 GN=EIF1AX,0.7555
same,Direction AGRE5_HUMAN,protein P48960,Down
same,LogFC AGRE5_HUMAN,protein P48960,-1.142
same,LogFC UB2R1_HUMAN,protein P49427 GN=CDC34,1.5155
same,Direction SYHM_HUMAN,protein P49590,Down
same,LogFC SYHM_HUMAN,protein P49590,-1.4939
same,LogFC VPS41_HUMAN,protein P49754 GN=VPS41,1.216
same,Direction NU153_HUMAN,protein P49790,Down
same,LogFC NU153_HUMAN,protein P49790,-1.0035
same,Direction DNLI3_HUMAN,protein P49916,Down
same,LogFC DNLI3_HUMAN,protein P49916,-1.6
same,LogFC GBG4_HUMAN,protein P50150 GN=GNG4,2.6107
same,Direction SERPH_HUMAN,protein P50454,Down
same,LogFC SERPH_HUMAN,protein P50454,-1.017
same,Direction KNTC1_HUMAN,protein P50748,Down
same,LogFC KNTC1_HUMAN,protein P50748,-0.8446
same,LogFC BCAM_HUMAN,protein P50895 GN=BCAM,1.4044
same,LogFC PLCD1_HUMAN,protein P51178 GN=PLCD1,0.5988
same,LogFC SMCA2_HUMAN,protein P51531 GN=SMARCA2,-1.3906
same,Direction SMCA4_HUMAN,protein P51532,Down
same,LogFC SMCA4_HUMAN,protein P51532,-1.513
same,LogFC TPMT_HUMAN,protein P51580 GN=TPMT,1.506
same,LogFC IRAK1_HUMAN,protein P51617 GN=IRAK1,-0.8883
same,Direction GPM6A_HUMAN,protein P51674,Down
same,LogFC GPM6A_HUMAN,protein P51674,-2.493
same,Direction STA5B_HUMAN,protein P51692,Down
same,LogFC STA5B_HUMAN,protein P51692,-2.183
same,LogFC PLXA3_HUMAN,protein P51805 GN=PLXNA3,0.8663
same,Direction CCNH_HUMAN,protein P51946,Down
same,LogFC CCNH_HUMAN,protein P51946,-0.7175
same,LogFC UB2E1_HUMAN,protein P51965 GN=UBE2E1,-1.604
same,Direction IMA1_HUMAN,protein P52292,Down
same,LogFC IMA1_HUMAN,protein P52292,-0.7516
same,LogFC EFNB2_HUMAN,protein P52799 GN=EFNB2,1.665
same,LogFC ARFP1_HUMAN,protein P53367 GN=ARFIP1,1.754
same,Direction ACLY_HUMAN,protein P53396,Down
same,LogFC ACLY_HUMAN,protein P53396,-0.3852
same,Direction SC5A3_HUMAN,protein P53794,Down
same,LogFC SC5A3_HUMAN,protein P53794,-1.548
same,LogFC SMTN_HUMAN,protein P53814 GN=SMTN,-1.694
same,LogFC HSP72_HUMAN,protein P54652 GN=HSPA2,3.712
same,LogFC SNAA_HUMAN,protein P54920 GN=NAPA,0.6489
same,Direction IF5_HUMAN,protein P55010,Down
same,LogFC IF5_HUMAN,protein P55010,-0.5429
same,LogFC S12A2_HUMAN,protein P55011 GN=SLC12A2,0.5141
same,LogFC XPO2_HUMAN,protein P55060 GN=CSE1L,-0.4776
same,LogFC BI1_HUMAN,protein P55061 GN=TMBIM6,-0.6524
same,Direction MAZ_HUMAN,protein P56270,Down
same,LogFC MAZ_HUMAN,protein P56270,-1.733
same,Direction SC61G_HUMAN,protein P60059,Down
